Assay results: patent publication US20190225650A1, “PEPTIDOMIMETIC MACROCYCLES AND USE THEREOF IN REGULATING HIF1ALPHA” (AILERON THERAPEUTICS, INC., priority 2013, published 2019)
Bridge positions count the residues as written; N and C are the ends. Square brackets hold non-standard residues; d marks the D form. Peptide text beside a SMILES is read from it. S5 = C=CCCC[C@](C)(N)C(=O)O; Nle = CCCC[C@H](N)C(=O)O

Tested on: HRE-bla ME-180 cells
Assay: Reporter gene assay (HRE-bla ME-180 HIF reporter, GeneBLAzer)
Format: cell-based, human
Conditions: for EC50: 24 hour normoxia
Procedure, shortened: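 A FRET β-lactamase readout of HIF transcription was used. After compound treatment in 0.3% DMSO/media under normoxic conditions, 20 μl of 6× LiveBLAzer-FRET B/G (CCF4-AM) substrate was added. Plates sat 3 hr at room temperature in the dark and were read at 409 Ex/460Em and 409Ex/530Em on a Synergy 2. Inhibition was compared against DMSO vehicle controls, with chetomin as positive control.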

EC50 [µM]	SMILES	18 h Avg % max inhibition at top conc (HIF Rptr-24 hrs normoxia) (μM)
15 to 30	CCCC[C@H](NC(=O)[C@H](CC(C)C)NC(=O)[C@@H](NC(=O)[C@H](CCC(=O)O)NC(=O)[C@H](CCC(=O)O)NC(=O)[C@H](CC(=O)O)NC(=O)[C@@H](NC(=O)[C@H](Cc1ccccc1)NC(C)=O)[C@@H](C)CC)C(C)C)C(=O)N[C@@]1(C)CCCC=CCCC[C@@](C)(C(=O)N[C@@H](CCCC)C(=O)N[C@@H](CCC(=O)O)C(=O)N[C@@H](CC(C)C)C(=O)N[C@@H](CC(=O)O)C(=O)N[C@@H](CCCNC(=N)N)C(=O)N[C@H](C(N)=O)[C@@H](C)CC)NC(=O)[C@H]([C@@H](C)CC)NC(=O)[C@H](C(C)C)NC(=O)[C@H](CC(C)C)NC1=O [SP-39] (Ac-FIDEEVL[Nle][S5]LVI[S5][Nle]ELDRI-NH2; staple 9-13)	+++ (≤25 but <50: +++)
> 30	CCCC[C@H](NC(=O)[C@H](CC(C)C)NC(=O)[C@@H](NC(=O)[C@H](CCC(=O)O)NC(=O)[C@H](CCC(=O)O)NC(=O)[C@H](CC(=O)O)NC(=O)[C@@H](NC(=O)[C@H](Cc1ccccc1)NC(C)=O)[C@@H](C)CC)C(C)C)C(=O)N[C@@]1(C)CCCC=CCCC[C@@](C)(C(=O)N[C@@H](CCCC)C(=O)N[C@@H](C)C(=O)N[C@@H](CCC(=O)O)C(=O)N[C@@H](CC(=O)O)C(=O)N[C@@H](CCCNC(=N)N)C(=O)N[C@H](C(N)=O)[C@@H](C)CC)NC(=O)[C@H]([C@@H](C)CC)NC(=O)[C@H](C(C)C)NC(=O)[C@H](CC(C)C)NC1=O [SP-40] (Ac-FIDEEVL[Nle][S5]LVI[S5][Nle]AEDRI-NH2; staple 9-13)	+ (<10: +)
15 to 30	CCCC[C@H](NC(=O)[C@H](CC(C)C)NC(=O)[C@@H](NC(=O)[C@H](CCC(=O)O)NC(=O)[C@H](CCC(=O)O)NC(=O)[C@H](CC(=O)O)NC(=O)[C@@H](NC(=O)[C@H](Cc1ccccc1)NC(C)=O)[C@@H](C)CC)C(C)C)C(=O)N[C@@]1(C)CCCC=CCCC[C@@](C)(C(=O)N[C@@H](CCCC)C(=O)N[C@@H](C)C(=O)N[C@@H](CC(C)C)C(=O)N[C@@H](CC(=O)O)C(=O)N[C@@H](CCC(=O)O)C(=O)N[C@H](C(N)=O)[C@@H](C)CC)NC(=O)[C@H]([C@@H](C)CC)NC(=O)[C@H](C(C)C)NC(=O)[C@H](CC(C)C)NC1=O [SP-41] (Ac-FIDEEVL[Nle][S5]LVI[S5][Nle]ALDEI-NH2; staple 9-13)	++++ (≥50: ++++)
> 30	CCCC[C@H](NC(=O)[C@H](CC(C)C)NC(=O)[C@@H](NC(=O)[C@H](CCC(=O)O)NC(=O)[C@H](CCC(=O)O)NC(=O)[C@H](CC(=O)O)NC(=O)[C@@H](NC(=O)[C@H](Cc1ccccc1)NC(C)=O)[C@@H](C)CC)C(C)C)C(=O)N[C@@]1(C)CCCC=CCCC[C@@](C)(C(=O)N[C@@H](CCCC)C(=O)N[C@@H](C)C(=O)N[C@@H](CC(C)C)C(=O)N[C@@H](CC(=O)O)C(=O)N[C@@H](CCCNC(=N)N)C(=O)N[C@@H](CCC(=O)O)C(N)=O)NC(=O)[C@H]([C@@H](C)CC)NC(=O)[C@H](C(C)C)NC(=O)[C@H](CC(C)C)NC1=O [SP-42] (Ac-FIDEEVL[Nle][S5]LVI[S5][Nle]ALDRE-NH2; staple 9-13)	++ (≤10 but <25: ++)
> 30	CCCC[C@H](NC(=O)[C@H](CC(C)C)NC(=O)[C@@H](NC(=O)[C@H](CCC(=O)O)NC(=O)[C@H](CCC(=O)O)NC(=O)[C@H](CC(=O)O)NC(=O)[C@@H](NC(=O)[C@H](Cc1ccccc1)NC(C)=O)[C@@H](C)CC)C(C)C)C(=O)N[C@@]1(C)CCCC=CCCC[C@@](C)(C(=O)N[C@@H](CCCC)C(=O)N[C@@H](C)C(=O)N[C@@H](CC(C)C)C(=O)N[C@@H](CC(=O)O)C(=O)N[C@@H](CCCNC(=N)N)C(=O)N[C@H](C(=O)N[C@@H](CCC(=O)O)C(N)=O)[C@@H](C)CC)NC(=O)[C@H]([C@@H](C)CC)NC(=O)[C@H](C(C)C)NC(=O)[C@H](CC(C)C)NC1=O [SP-43] (Ac-FIDEEVL[Nle][S5]LVI[S5][Nle]ALDRIE-NH2; staple 9-13)	+++ (≤25 but <50: +++)
15 to 30	CCCC[C@H](NC(=O)[C@H](CC(C)C)NC(=O)[C@@H](NC(=O)[C@H](CCC(=O)O)NC(=O)[C@H](CCC(=O)O)NC(=O)[C@H](CC(=O)O)NC(=O)[C@@H](NC(=O)[C@H](CO)NC(C)=O)[C@@H](C)CC)C(C)C)C(=O)N[C@@]1(C)CCCC=CCCC[C@@](C)(C(=O)N[C@@H](CCCC)C(=O)N[C@@H](C)C(=O)N[C@@H](CC(C)C)C(=O)N[C@@H](CC(=O)O)C(=O)N[C@@H](CCCNC(=N)N)C(=O)N[C@H](C(N)=O)[C@@H](C)CC)NC(=O)[C@H]([C@@H](C)CC)NC(=O)[C@H](C(C)C)NC(=O)[C@H](CC(C)C)NC1=O [SP-44] (Ac-SIDEEVL[Nle][S5]LVI[S5][Nle]ALDRI-NH2; staple 9-13)	+++ (≤25 but <50: +++)
> 30	CCCC[C@H](NC(=O)[C@H](CC(C)C)NC(=O)[C@@H](NC(=O)[C@H](CCC(=O)O)NC(=O)[C@H](CCC(=O)O)NC(=O)[C@H](CC(=O)O)NC(=O)[C@H](CO)NC(=O)[C@H](Cc1ccccc1)NC(C)=O)C(C)C)C(=O)N[C@@]1(C)CCCC=CCCC[C@@](C)(C(=O)N[C@@H](CCCC)C(=O)N[C@@H](C)C(=O)N[C@@H](CC(C)C)C(=O)N[C@@H](CC(=O)O)C(=O)N[C@@H](CCCNC(=N)N)C(=O)N[C@H](C(N)=O)[C@@H](C)CC)NC(=O)[C@H]([C@@H](C)CC)NC(=O)[C@H](C(C)C)NC(=O)[C@H](CC(C)C)NC1=O [SP-45] (Ac-FSDEEVL[Nle][S5]LVI[S5][Nle]ALDRI-NH2; staple 9-13)	++ (≤10 but <25: ++)
15 to 30	CCCC[C@H](NC(=O)[C@H](CC(C)C)NC(=O)[C@@H](NC(=O)[C@H](CCC(=O)O)NC(=O)[C@H](CCC(=O)O)NC(=O)[C@H](CO)NC(=O)[C@@H](NC(=O)[C@H](Cc1ccccc1)NC(C)=O)[C@@H](C)CC)C(C)C)C(=O)N[C@@]1(C)CCCC=CCCC[C@@](C)(C(=O)N[C@@H](CCCC)C(=O)N[C@@H](C)C(=O)N[C@@H](CC(C)C)C(=O)N[C@@H](CC(=O)O)C(=O)N[C@@H](CCCNC(=N)N)C(=O)N[C@H](C(N)=O)[C@@H](C)CC)NC(=O)[C@H]([C@@H](C)CC)NC(=O)[C@H](C(C)C)NC(=O)[C@H](CC(C)C)NC1=O [SP-46] (Ac-FISEEVL[Nle][S5]LVI[S5][Nle]ALDRI-NH2; staple 9-13)	+++ (≤25 but <50: +++)
5 to 15	CCCC[C@H](NC(=O)[C@H](CC(C)C)NC(=O)[C@@H](NC(=O)[C@H](CO)NC(=O)[C@H](CCC(=O)O)NC(=O)[C@H](CC(=O)O)NC(=O)[C@@H](NC(=O)[C@H](Cc1ccccc1)NC(C)=O)[C@@H](C)CC)C(C)C)C(=O)N[C@@]1(C)CCCC=CCCC[C@@](C)(C(=O)N[C@@H](CCCC)C(=O)N[C@@H](C)C(=O)N[C@@H](CC(C)C)C(=O)N[C@@H](CC(=O)O)C(=O)N[C@@H](CCCNC(=N)N)C(=O)N[C@H](C(N)=O)[C@@H](C)CC)NC(=O)[C@H]([C@@H](C)CC)NC(=O)[C@H](C(C)C)NC(=O)[C@H](CC(C)C)NC1=O [SP-47] (Ac-FIDESVL[Nle][S5]LVI[S5][Nle]ALDRI-NH2; staple 9-13)	++++ (≥50: ++++)
15 to 30	CCCC[C@H](NC(=O)[C@H](CC(C)C)NC(=O)[C@H](CO)NC(=O)[C@H](CCC(=O)O)NC(=O)[C@H](CCC(=O)O)NC(=O)[C@H](CC(=O)O)NC(=O)[C@@H](NC(=O)[C@H](Cc1ccccc1)NC(C)=O)[C@@H](C)CC)C(=O)N[C@@]1(C)CCCC=CCCC[C@@](C)(C(=O)N[C@@H](CCCC)C(=O)N[C@@H](C)C(=O)N[C@@H](CC(C)C)C(=O)N[C@@H](CC(=O)O)C(=O)N[C@@H](CCCNC(=N)N)C(=O)N[C@H](C(N)=O)[C@@H](C)CC)NC(=O)[C@H]([C@@H](C)CC)NC(=O)[C@H](C(C)C)NC(=O)[C@H](CC(C)C)NC1=O [SP-48] (Ac-FIDEESL[Nle][S5]LVI[S5][Nle]ALDRI-NH2; staple 9-13)	+++ (≤25 but <50: +++)
5 to 15	CCCC[C@H](NC(=O)[C@H](CO)NC(=O)[C@@H](NC(=O)[C@H](CCC(=O)O)NC(=O)[C@H](CCC(=O)O)NC(=O)[C@H](CC(=O)O)NC(=O)[C@@H](NC(=O)[C@H](Cc1ccccc1)NC(C)=O)[C@@H](C)CC)C(C)C)C(=O)N[C@@]1(C)CCCC=CCCC[C@@](C)(C(=O)N[C@@H](CCCC)C(=O)N[C@@H](C)C(=O)N[C@@H](CC(C)C)C(=O)N[C@@H](CC(=O)O)C(=O)N[C@@H](CCCNC(=N)N)C(=O)N[C@H](C(N)=O)[C@@H](C)CC)NC(=O)[C@H]([C@@H](C)CC)NC(=O)[C@H](C(C)C)NC(=O)[C@H](CC(C)C)NC1=O [SP-49] (Ac-FIDEEVS[Nle][S5]LVI[S5][Nle]ALDRI-NH2; staple 9-13)	++++ (≥50: ++++)
≤ 5	CCCC[C@H](NC(=O)[C@]1(C)CCCC=CCCC[C@](C)(NC(=O)[C@H](CO)NC(=O)[C@H](CC(C)C)NC(=O)[C@@H](NC(=O)[C@H](CCC(=O)O)NC(=O)[C@H](CCC(=O)O)NC(=O)[C@H](CC(=O)O)NC(=O)[C@@H](NC(=O)[C@H](Cc2ccccc2)NC(C)=O)[C@@H](C)CC)C(C)C)C(=O)N[C@@H](CC(C)C)C(=O)N[C@@H](C(C)C)C(=O)N[C@@H]([C@@H](C)CC)C(=O)N1)C(=O)N[C@@H](C)C(=O)N[C@@H](CC(C)C)C(=O)N[C@@H](CC(=O)O)C(=O)N[C@@H](CCCNC(=N)N)C(=O)N[C@H](C(N)=O)[C@@H](C)CC [SP-50] (Ac-FIDEEVLS[S5]LVI[S5][Nle]ALDRI-NH2; staple 9-13)	++++ (≥50: ++++)
